In ChEMBL document CHEMBL5252542, “Discovery and Optimization of 5-Amino-1,2,3-triazole-4-carboxamide Series against Trypanosoma cruzi” (J Med Chem, 2017):

Columns and labels:
[1] = buffer, pH 7.4
[2] = Drug metabolism in po dosed NMRI mouse plasma assessed as release of 3-methoxyaniline; format: ADME, organism-based; conditions: in vivo
[3] = Drug metabolism in mouse plasma assessed as release of 3-methoxyaniline measured after 5 hrs; format: ADME, cell-free
[4] = mouse, in vivo, po, 10 mg/kg, 8 h
[5] = mouse, in vivo, po, 10 mg/kg, 24 h
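Throughout, for logD: logD at pH 7.4 derived from a chromatographic hydrophobicity index measured by reversed-phase HPLC.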

`Nc1c(C(=O)Nc2ccccc2)nnn1Cc1ccc(CN2CCOCC2)cc1` gave a logD [1] of 2.

For `COc1cccc(NC(=O)c2nnn(Cc3ccncc3)c2N)c1`, the logD [1] was 1.4.

In the case of `COc1cccc(NC(=O)c2nnn(Cc3ccc(CN4CCOCC4)cc3)c2N)c1`, the Drug metabolism [2] is reported as “Metabolite_Notdetected” and the Drug metabolism [3] is reported as “Metabolite_Notdetected”.

In the case of `COc1cccc(NC(=O)c2nnn(Cc3ccc(C#N)cc3)c2N)c1`, the logD [1] is reported as 2.3.

For `COc1cccc(NC(=O)c2nnn(C(C)c3ccc(C(C)(C)C)cc3)c2N)c1` (stereo not given), the logD [1] was 3.9.

`Nc1c(-c2nc(C3CCOCC3)no2)nnn1Cc1ccc(CN2CCOCC2)cc1` gave a logD [1] of 1.3.

`COc1cccc(NC(=O)c2nnn(Cc3ccc(CN4CCOCC4)cc3)c2N)c1F` showed a logD [1] of 2.1.

`COc1cccc(NC(=O)c2nnn(CC3CCN(C(C)=O)CC3)c2N)c1` showed a logD [1] of 1.2.

`COc1ccccc1-c1noc(-c2nnn(Cc3ccc(CN4CCOCC4)cc3)c2N)n1` gave a logD [1] of 2.1.

In the case of `COc1cccc(NC(=O)c2nnn(Cc3ccc(C(C)C)cc3)c2N)c1`, the logD [1] is reported as 3.4, the AUC [4] is reported as 3200 ng·min/mL and the Cmax [5] is reported as 17 ng/mL.

Work on `COc1cccc(NC(=O)c2nnn(CC3CCNCC3)c2N)c1` yielded a logD [1] of 0.6.

`COc1cccc(NC(=O)c2nnn(Cc3ccc(C4CC4)cc3)c2N)c1` showed a logD [1] of 3.2.

For `COc1cc(NC(=O)c2nnn(Cc3ccc(CN4CCOCC4)cc3)c2N)nc(OC)n1`, the logD [1] was 2.1, the AUC [4] was 300000 ng·min/mL and the Cmax [5] was 1300 ng/mL.

Molecule `COc1cccc(NC(=O)c2nnn(Cc3ccccc3)c2N)c1` has a logD [1] of 2.6.

With `COc1nnccc1-c1noc(-c2nnn(Cc3ccc(CN4CCOCC4)cc3)c2N)n1` the logD [1] was 1.

With `COc1cccc(NC(=O)c2nnn(CC3CCN(C(=O)OC(C)(C)C)CC3)c2N)c1` the logD [1] was 2.9.

`COc1cccc(NC(=O)c2nnn(Cc3ccc(OC(F)(F)F)cc3)c2N)c1` gave a logD [1] of 3.6, an AUC [4] of 2300 ng·min/mL and a Cmax [5] of 13 ng/mL.

`Cc1noc(C)c1-c1noc(-c2nnn(Cc3ccc(CN4CCOCC4)cc3)c2N)n1` showed a logD [1] of 2.1.

Molecule `COc1cccc(NC(=O)c2nnn(Cc3ccc(-n4cccn4)cc3)c2N)c1` has a logD [1] of 2.4.

With `COc1cc(NC(=O)c2nnn(Cc3ccc(CN4CCOCC4)cc3)c2N)ccc1F` the logD [1] was 2.1.

In the case of `COc1cccc(NC(=O)c2nnn(Cc3ccc([S+](C)[O-])cc3)c2N)c1` (stereo not given), the logD [1] is reported as 1.3.

Work on `COc1cc(NC(=O)c2nnn(Cc3ccc(CN4CCOCC4)cc3)c2N)cc(OC)c1` yielded a logD [1] of 2.2, an AUC [4] of 370000 ng·min/mL and a Cmax [5] of 1600 ng/mL.

With `Cc1cccc(NC(=O)c2nnn(Cc3ccc(CN4CCOCC4)cc3)c2N)c1` the logD [1] was 2.

Work on `Nc1c(-c2nc(-c3ccccc3)no2)nnn1Cc1ccc(CN2CCOCC2)cc1` yielded a logD [1] of 2.6.

In the case of `COc1cnccc1-c1noc(-c2nnn(Cc3ccc(CN4CCOCC4)cc3)c2N)n1`, the logD [1] is reported as 1.1.

Molecule `COc1ccnc(NC(=O)c2nnn(Cc3ccc(CN4CCOCC4)cc3)c2N)c1` has a logD [1] of 2.

`COc1ncccc1-c1noc(-c2nnn(Cc3ccc(CN4CCOCC4)cc3)c2N)n1` gave a logD [1] of 1.7, an AUC [4] of 190000 ng·min/mL and a Cmax [5] of 1300 ng/mL.

`COC1CCCC(NC(=O)c2nnn(Cc3ccc(CN4CCOCC4)cc3)c2N)C1` (stereo not given) showed a logD [1] of 2.

For `Nc1c(-c2nc(C3CCC(O)CC3)no2)nnn1Cc1ccc(CN2CCOCC2)cc1` (stereo not given), the logD [1] was 0.9.

Work on `COc1cccc(NC(=O)c2nnn(Cc3cc(C)on3)c2N)c1` yielded a logD [1] of 2.

Molecule `COc1cccc(N(C)C(=O)c2nnn(Cc3ccc(CN4CCOCC4)cc3)c2N)c1` has a logD [1] of 2.

`COc1cccnc1-c1noc(-c2nnn(Cc3ccc(CN4CCOCC4)cc3)c2N)n1` showed a logD [1] of 1.

Molecule `COc1cc(F)cc(NC(=O)c2nnn(Cc3ccc(CN4CCOCC4)cc3)c2N)c1` has a logD [1] of 2.4.

In the case of `Nc1c(C(=O)NC23CC4CC(CC(C4)C2)C3)nnn1Cc1ccc(CN2CCOCC2)cc1`, the logD [1] is reported as 2.
